Values quoted from earlier work in US20240156829A1, “Stable Antiemetic Emulsions for Parenteral Administration” (Slayback Pharma LLC, priority 2022, published 2024).
Structures can show the parent of a compound that is named as a salt.

Legend:
[1] = by light or oxygen or heavy metals
[2] = in vivo

## C[C@@H](O[C@H]1OCCN(Cc2n[nH]c(=O)[nH]2)[C@H]1c1ccc(F)cc1)c1cc(C(F)(F)F)cc(C(F)(F)F)c1 [Aprepitant, 5-([(2R, 3S)-2-((R)-1-[3,5-bis (trifluoromethyl)phenyl]ethoxy)-3-(4-fluoro-phenyl)morpholino]methyl)-1H-1,2,4-triazol-3(2H)-one]
other
  solubility: very poor

## O=C1c2cccc3c2[C@H](CCC3)CN1[C@@H]1CN2CCC1CC2 [Palonosetron hydrochloride, (3aS)-2-[(3S)-1-azabicyclo [2.2.2]octan-3-yl]-3a,4,5,6-tetrahydro-3H-benzo[de] isoquinolin-1-one; hydrochloride]
[1]
  Stability in a liquid medium: easily oxidized and degraded
[2]
  half-life: 40 h
